# Values of other authors in patent US20110268669A1, “COMPOSITION AND METHOD FOR TREATING EUSTACHIAN TUBE DYSFUNCTION” (priority 2010, published 2011).
# Conditions: taken as a chewing gum
compound,measurement,value
OC[C@@H](O)[C@H](O)[C@@H](O)CO [Xylitol],prevention of otitis media,shown to prevent otitis media
